Key:
[1] = target: Ribosomal protein S6 kinase alpha-1 (Homo sapiens) (UniProt Q15418); experiment: Inhibition of C-terminal RSK1 kinetic domain 2 (unknown origin) assessed as residual activity at 100 nM by KINOMEscan analysis relative to control
[2] = test system: Phosphatidylinositol 4,5-bisphosphate 3-kinase catalytic subunit alpha isoform (Homo sapiens), P42336 [M1043I]; experiment: Inhibition of PIK3CA M1043I mutant (unknown origin) assessed as residual activity at 100 nM by KINOMEscan analysis relative to control
[3] = target: Serine/threonine-protein kinase/endoribonuclease IRE1 (Homo sapiens) (UniProt O75460); experiment: Inhibition of ERN1 (unknown origin) assessed as residual activity at 100 nM by KINOMEscan analysis relative to control
[4] = target: T1, Tyrosine-protein kinase ITK/TSK (Homo sapiens) (UniProt Q08881); experiment: Inhibition of ITK (unknown origin) assessed as residual activity at 100 nM by KINOMEscan analysis relative to control
T1 sequence (whole entry): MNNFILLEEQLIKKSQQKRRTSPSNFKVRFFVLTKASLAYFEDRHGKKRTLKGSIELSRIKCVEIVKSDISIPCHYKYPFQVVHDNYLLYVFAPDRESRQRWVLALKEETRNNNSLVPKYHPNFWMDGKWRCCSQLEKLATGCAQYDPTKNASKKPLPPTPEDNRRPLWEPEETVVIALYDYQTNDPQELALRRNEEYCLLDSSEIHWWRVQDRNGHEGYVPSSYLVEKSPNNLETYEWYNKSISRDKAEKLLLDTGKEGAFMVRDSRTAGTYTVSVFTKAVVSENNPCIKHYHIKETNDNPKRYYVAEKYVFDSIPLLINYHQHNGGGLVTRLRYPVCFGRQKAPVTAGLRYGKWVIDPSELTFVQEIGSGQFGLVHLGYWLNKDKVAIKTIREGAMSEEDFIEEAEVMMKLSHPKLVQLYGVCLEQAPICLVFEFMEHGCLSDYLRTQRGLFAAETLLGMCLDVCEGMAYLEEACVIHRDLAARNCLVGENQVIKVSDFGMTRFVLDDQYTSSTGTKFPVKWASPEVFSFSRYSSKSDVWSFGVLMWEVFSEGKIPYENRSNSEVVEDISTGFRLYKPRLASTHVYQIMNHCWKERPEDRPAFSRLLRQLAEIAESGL

[5] = target: Casein kinase I isoform epsilon (Homo sapiens) (UniProt P49674); experiment: Inhibition of CSNK1E (unknown origin) assessed as residual activity at 100 nM by KINOMEscan analysis relative to control
[6] = target: Cyclin-dependent kinase 16 (Homo sapiens) (UniProt Q00536); experiment: Inhibition of PCTK1 (unknown origin) assessed as residual activity at 100 nM by KINOMEscan analysis relative to control
[7] = target: Calcium/calmodulin-dependent protein kinase type II subunit alpha (Homo sapiens) (UniProt Q9UQM7); experiment: Inhibition of CAMK2A (unknown origin) assessed as residual activity at 100 nM by KINOMEscan analysis relative to control
[8] = target: T2, Activin receptor type-1B (Homo sapiens) (UniProt P36896); experiment: Inhibition of ACVR1B (unknown origin) assessed as residual activity at 100 nM by KINOMEscan analysis relative to control
T2 sequence (whole entry): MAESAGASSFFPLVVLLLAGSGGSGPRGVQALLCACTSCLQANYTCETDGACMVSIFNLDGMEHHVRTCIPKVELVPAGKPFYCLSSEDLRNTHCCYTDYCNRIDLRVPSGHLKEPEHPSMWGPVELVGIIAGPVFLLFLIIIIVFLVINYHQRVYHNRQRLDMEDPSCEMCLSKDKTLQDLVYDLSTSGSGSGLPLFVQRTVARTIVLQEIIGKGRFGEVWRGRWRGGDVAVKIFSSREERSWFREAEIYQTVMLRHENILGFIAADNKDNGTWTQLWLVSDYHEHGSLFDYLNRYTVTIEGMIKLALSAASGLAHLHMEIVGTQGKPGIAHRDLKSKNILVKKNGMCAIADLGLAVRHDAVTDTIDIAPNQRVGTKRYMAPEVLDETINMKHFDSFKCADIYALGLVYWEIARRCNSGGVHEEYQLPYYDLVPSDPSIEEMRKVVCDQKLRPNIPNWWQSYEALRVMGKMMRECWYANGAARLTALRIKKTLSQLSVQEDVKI

[9] = target: T3, Interleukin-1 receptor-associated kinase 4 (Homo sapiens) (UniProt Q9NWZ3); experiment: Inhibition of IRAK4 (unknown origin) assessed as residual activity at 100 nM by KINOMEscan analysis relative to control
T3 sequence (whole entry): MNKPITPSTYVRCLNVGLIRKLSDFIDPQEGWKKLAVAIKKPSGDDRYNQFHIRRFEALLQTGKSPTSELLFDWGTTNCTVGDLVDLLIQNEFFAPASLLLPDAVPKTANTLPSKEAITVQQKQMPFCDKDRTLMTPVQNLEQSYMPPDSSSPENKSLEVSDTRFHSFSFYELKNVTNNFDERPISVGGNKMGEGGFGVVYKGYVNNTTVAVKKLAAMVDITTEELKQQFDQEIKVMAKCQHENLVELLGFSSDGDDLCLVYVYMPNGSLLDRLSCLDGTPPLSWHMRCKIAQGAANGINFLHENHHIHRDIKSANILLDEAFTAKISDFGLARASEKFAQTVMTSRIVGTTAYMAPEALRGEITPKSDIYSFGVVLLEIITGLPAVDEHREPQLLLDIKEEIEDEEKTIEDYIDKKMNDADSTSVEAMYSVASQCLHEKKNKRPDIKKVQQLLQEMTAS

[10] = target: Serine/threonine-protein kinase WNK3 (Homo sapiens) (UniProt Q9BYP7); experiment: Inhibition of WNK3 (unknown origin) assessed as residual activity at 100 nM by KINOMEscan analysis relative to control
Chain of Serine/threonine-protein kinase WNK3 (Homo sapiens) (Q9BYP7 whole entry): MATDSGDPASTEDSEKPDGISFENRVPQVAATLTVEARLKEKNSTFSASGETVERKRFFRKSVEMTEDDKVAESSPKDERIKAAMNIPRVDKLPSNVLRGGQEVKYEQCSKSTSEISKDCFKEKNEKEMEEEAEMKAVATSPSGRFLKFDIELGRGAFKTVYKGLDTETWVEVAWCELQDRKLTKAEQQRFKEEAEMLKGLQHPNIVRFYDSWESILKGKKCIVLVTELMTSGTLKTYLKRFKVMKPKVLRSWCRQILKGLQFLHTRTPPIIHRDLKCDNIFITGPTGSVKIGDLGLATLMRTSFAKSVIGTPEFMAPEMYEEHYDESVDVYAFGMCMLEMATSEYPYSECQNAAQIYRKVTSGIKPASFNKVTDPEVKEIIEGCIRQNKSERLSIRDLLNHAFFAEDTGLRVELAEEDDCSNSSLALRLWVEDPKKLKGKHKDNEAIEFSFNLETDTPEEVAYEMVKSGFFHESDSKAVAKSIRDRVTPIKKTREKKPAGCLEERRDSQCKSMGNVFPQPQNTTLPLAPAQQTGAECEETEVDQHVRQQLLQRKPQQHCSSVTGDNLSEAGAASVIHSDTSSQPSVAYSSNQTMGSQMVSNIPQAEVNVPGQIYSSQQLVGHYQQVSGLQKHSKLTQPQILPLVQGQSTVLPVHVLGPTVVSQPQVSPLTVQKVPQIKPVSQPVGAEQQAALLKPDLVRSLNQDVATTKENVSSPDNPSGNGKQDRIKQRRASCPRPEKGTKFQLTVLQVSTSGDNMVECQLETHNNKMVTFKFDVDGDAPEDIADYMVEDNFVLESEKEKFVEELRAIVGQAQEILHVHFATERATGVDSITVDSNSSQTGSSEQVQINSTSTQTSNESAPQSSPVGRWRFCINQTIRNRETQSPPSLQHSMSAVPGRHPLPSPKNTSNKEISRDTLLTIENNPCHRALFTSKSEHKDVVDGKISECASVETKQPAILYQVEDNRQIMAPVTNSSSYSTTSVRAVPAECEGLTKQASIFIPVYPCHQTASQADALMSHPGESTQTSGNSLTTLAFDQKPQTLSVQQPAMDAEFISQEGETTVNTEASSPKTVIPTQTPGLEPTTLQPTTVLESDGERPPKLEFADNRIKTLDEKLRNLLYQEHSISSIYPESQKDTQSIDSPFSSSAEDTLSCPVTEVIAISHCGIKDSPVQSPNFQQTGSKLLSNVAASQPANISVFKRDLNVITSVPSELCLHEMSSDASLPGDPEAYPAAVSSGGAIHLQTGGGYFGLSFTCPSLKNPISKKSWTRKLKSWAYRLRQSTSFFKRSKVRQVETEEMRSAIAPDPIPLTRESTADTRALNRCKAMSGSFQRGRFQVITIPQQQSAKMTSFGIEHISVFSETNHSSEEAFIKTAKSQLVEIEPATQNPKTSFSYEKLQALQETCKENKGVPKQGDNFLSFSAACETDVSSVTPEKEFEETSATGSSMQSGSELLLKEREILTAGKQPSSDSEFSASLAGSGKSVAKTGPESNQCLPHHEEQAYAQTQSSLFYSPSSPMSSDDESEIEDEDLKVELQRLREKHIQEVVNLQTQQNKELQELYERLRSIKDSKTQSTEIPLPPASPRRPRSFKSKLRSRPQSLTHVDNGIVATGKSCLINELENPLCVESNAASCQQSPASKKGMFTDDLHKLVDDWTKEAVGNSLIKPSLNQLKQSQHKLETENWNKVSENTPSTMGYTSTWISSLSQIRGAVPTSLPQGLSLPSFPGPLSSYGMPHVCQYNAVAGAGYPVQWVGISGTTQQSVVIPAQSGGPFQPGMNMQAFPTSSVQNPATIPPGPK

Chain of Cyclin-dependent kinase 16 (Homo sapiens) (Q00536 whole entry): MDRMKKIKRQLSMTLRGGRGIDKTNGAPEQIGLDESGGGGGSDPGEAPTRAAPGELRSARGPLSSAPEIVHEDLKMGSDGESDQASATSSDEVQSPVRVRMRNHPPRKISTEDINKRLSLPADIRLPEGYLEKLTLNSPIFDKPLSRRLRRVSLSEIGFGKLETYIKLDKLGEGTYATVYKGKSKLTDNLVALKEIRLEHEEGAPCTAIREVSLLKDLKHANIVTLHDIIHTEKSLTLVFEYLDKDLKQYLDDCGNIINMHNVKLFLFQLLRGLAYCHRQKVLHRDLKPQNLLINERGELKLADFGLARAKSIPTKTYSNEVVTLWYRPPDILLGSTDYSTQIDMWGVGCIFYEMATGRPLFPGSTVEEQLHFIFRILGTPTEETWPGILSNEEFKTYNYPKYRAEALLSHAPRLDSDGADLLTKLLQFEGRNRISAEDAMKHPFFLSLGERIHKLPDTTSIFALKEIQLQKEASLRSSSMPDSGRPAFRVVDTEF
Chain of Calcium/calmodulin-dependent protein kinase type II subunit alpha (Homo sapiens) (Q9UQM7 whole entry): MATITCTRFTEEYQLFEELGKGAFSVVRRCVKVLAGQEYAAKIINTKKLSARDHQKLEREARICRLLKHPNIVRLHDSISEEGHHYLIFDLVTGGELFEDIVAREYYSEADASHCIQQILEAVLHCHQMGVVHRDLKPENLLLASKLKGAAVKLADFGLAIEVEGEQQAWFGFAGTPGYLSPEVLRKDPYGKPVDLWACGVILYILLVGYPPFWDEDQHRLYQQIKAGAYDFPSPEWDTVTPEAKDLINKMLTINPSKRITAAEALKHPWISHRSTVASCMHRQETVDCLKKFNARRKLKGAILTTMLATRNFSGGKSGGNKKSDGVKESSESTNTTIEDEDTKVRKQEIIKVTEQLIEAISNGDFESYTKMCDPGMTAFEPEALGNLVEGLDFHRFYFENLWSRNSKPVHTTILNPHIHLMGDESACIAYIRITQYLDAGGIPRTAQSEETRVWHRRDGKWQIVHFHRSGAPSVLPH
Chain of Serine/threonine-protein kinase/endoribonuclease IRE1 (Homo sapiens) (O75460 19-977 limits assumed): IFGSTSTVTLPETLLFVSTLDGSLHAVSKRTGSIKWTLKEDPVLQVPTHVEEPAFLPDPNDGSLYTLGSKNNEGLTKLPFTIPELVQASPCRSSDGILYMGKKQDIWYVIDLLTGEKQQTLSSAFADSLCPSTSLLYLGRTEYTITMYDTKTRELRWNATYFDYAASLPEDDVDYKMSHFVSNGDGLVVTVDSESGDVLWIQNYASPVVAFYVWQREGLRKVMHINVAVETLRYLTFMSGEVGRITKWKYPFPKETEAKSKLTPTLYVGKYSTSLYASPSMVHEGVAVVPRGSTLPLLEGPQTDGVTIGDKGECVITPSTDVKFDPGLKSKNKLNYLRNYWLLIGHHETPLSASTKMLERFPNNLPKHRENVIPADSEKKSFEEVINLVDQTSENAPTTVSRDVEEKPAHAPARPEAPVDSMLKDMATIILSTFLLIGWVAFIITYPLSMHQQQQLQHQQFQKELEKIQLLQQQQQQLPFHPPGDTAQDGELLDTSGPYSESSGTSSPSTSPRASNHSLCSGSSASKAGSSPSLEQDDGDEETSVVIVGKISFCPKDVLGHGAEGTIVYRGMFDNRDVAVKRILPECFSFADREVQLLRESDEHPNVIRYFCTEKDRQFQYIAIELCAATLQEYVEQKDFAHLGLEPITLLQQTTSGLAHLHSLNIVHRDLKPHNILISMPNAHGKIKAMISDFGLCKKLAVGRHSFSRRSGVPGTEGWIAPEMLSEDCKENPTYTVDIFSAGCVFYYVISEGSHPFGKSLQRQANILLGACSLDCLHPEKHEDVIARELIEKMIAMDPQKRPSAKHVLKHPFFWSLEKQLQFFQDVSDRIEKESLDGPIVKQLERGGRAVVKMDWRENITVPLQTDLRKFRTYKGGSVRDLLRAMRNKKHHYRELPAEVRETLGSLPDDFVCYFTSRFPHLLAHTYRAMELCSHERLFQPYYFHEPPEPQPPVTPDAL
Chain of Casein kinase I isoform epsilon (Homo sapiens) (P49674 whole entry, looked up, canonical isoform): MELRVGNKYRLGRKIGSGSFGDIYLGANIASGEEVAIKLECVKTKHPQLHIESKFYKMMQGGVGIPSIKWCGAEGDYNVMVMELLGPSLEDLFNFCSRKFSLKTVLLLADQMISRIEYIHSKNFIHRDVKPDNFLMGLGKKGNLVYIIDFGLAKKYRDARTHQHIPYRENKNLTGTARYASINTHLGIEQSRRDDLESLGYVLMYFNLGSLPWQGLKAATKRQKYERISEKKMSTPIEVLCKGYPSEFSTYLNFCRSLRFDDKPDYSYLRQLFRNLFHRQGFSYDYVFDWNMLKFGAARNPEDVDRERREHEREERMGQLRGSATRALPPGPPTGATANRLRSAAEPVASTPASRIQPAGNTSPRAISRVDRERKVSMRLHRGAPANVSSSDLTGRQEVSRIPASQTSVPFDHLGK
Chain of Ribosomal protein S6 kinase alpha-1 (Homo sapiens) (Q15418 whole entry, the tested form may be a part, canonical isoform): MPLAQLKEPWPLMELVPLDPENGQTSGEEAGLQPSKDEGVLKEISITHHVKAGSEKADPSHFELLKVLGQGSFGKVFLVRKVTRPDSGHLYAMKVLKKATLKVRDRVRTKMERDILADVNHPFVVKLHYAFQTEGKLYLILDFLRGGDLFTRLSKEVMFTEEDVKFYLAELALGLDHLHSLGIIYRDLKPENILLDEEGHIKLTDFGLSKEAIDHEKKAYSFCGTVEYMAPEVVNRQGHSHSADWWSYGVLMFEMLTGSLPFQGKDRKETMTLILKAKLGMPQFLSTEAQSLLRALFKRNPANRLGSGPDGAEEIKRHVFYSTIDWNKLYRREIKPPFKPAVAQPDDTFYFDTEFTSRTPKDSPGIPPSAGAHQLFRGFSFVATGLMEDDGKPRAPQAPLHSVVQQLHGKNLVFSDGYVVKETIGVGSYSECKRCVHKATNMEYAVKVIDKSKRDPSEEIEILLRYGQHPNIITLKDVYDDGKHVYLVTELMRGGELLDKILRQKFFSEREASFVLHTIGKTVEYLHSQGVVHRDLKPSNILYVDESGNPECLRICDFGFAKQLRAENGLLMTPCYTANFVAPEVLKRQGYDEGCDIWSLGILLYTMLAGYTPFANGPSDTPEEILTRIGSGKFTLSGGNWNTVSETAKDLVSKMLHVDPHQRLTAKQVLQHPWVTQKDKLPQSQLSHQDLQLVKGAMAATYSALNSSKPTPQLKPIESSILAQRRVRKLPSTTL

COc1cc2ncnc(N[C@H](C)c3cccc4ccccc34)c2cc1OC
Activity [1]: 86%
Activity [2]: 89%
Activity [3]: 96%
Activity [4]: 73%
Activity [5]: 97%
Activity [6]: 96%
Activity [7]: 96%
Activity [8]: 89%
Activity [9]: 94%
Activity [10]: 89%
